Measured values published in article PMC8944975, “Secretin Receptor as a Target in Gastrointestinal Cancer: Expression Analysis and Ligand Development” (Biomedicines, 2022).
Read-outs that look alike come from different tables or passages of the source. Where a SMILES comes first, the peptide text is derived from it. [ ]: non-standard residue; d: D form.

Legend:
human SCTR [1] = target: T1, human SCTR (Homo sapiens, UniProt P47872); test: β-arr2-GFP translocation assay run in antagonist mode; format: cell-based; set-up: expressed in transfected cells; host or cells: U2OS (human osteosarcoma), stably co-transfected with β-arrestin2-GFP; on IC50, inhibition of β-arr2-GFP translocation (Table 3): peptide 5 min at 37 °C
From the text: (§1) U2OS-SCTR/β-arr2-GFP: human osteosarcoma cell line U2OS (purchased from ATCC/LGC Standards, Wesel, Germany) were stably transfected with plasmids encoding SCTR (Homo sapiens) and the fusion protein β-arrestin2-green fluorescent protein (GFP) (Rattus norvegicus-Aequorea victoria) (β-arr2-GFP).
For analysis of antagonistic effects on SCTR, a slightly modified protocol of the β-arr2-GFP translocation was used. […] For analysis, cells were terminally fixed and permeabilized as previously described. The additional monitoring of IDCC fluorescence in the near-infrared channel (667 nm) provided another measure for receptor binding and activation.

human SCTR [2] = target: T1, human SCTR; test: agonist-induced β-arr2-GFP translocation; format: cell-based; set-up: expressed in transfected cells; host or cells: U2OS (human osteosarcoma), stably co-transfected with β-arrestin2-GFP; settings: Supplementary Tables S1 and S2, decimal comma, '-' not detectable (Figure 4); for β-arrestin2-GFP agonism efficacy: % of wild-type secretin
From the text: as §1
To evaluate reactivity of human SCTR exposed to different ligand variants, intracellular translocation of a fusion protein of β-arrestin2 and green fluorescent protein was utilized. For evaluation of activation, receptor-mediated recruitment of cytoplasmic β-arr2-GFP was monitored through its translocation into condensed intracellular vesicles. The extent of translocation events was quantified by determining the increasing granularization of the intracellular fluorescence utilizing an automated high-throughput microscope in combination with computational algorithms to estimate potency (EC50) and efficacy, thus characterizing ligand-SCTR interaction. U2OS-SCTR/β-arr2-GFP cells were seeded in 96-well cell culture plates to 60–80% confluence. On the following day, preceding stimulation, cells were incubated for one hour in serum-free medium. Ligand variants were applied as serial dilutions in assay buffer C1. After preincubation, supernatant was discarded by tapping plates overhead repeatedly. For stimulation, 50 µL of ligand dilution was applied per well in duplicates and incubated for 20 min at 37 °C. Successively, cells were fixed by applying 4% buffered formaldehyde (Herbeta Arzneimittel, Berlin, Germany) for 10 min at room temperature and consecutively permeabilized for 10 min at room temperature with 0.1% TritonX-100 in PBS, containing DAPI (4′,6-Diamidin-2-phenylindol, SigmaAldrich, Deisenhofen, Germany, 1 µg/mL) to counterstain nuclei. Microscopic images were recorded by an IN Cell Analyzer 1000 (GE Healthcare, Reading, UK) with 20× magnification at 5 frames per well in a 96-well format. Image processing was performed with IN Cell Investigator software (GE Healthcare, Reading, UK), applying the provided granularity algorithm. The output of the analysis was indicated as vesicle area/cell and was utilized for calculation of concentration–response curves. Parameters derived from curve fitting included the concentration of half-maximal activity (EC50), and intrinsic activity. Intrinsic activity was normalized defining reaction to non-modified wild type secretin as the 100% curve maximum value.

[3] = read-out: IC50, inhibition of β-arr2-GFP translocation (Table 3)

T1 sequence (P47872 23-440): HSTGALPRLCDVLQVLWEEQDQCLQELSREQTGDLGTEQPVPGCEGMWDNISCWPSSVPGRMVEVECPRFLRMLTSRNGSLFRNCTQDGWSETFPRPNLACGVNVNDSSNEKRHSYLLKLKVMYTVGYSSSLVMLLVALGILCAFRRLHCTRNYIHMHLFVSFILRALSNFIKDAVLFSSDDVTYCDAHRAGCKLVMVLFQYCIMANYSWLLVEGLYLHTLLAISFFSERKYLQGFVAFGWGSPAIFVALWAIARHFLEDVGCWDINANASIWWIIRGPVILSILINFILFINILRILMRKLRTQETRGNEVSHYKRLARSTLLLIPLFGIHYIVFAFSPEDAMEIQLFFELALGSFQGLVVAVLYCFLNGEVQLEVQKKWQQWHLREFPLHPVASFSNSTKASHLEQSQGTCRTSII

Row | SMILES | IC50 (human SCTR [1]; [3]) | also measured
1 | CC(C)C[C@H](NC(=O)CNC(=O)[C@H](CCC(N)=O)NC(=O)[C@H](CC(C)C)NC(=O)[C@H](CC(C)C)NC(=O)[C@H](CCCNC(=N)N)NC(=O)[C@H](CCC(N)=O)NC(=O)[C@H](CC(C)C)NC(=O)[C@H](CCCNC(=N)N)NC(=O)[C@H](C)NC(=O)CNC(=O)[C@H](CCC(=O)O)NC(=O)[C@H](CCCNC(=N)N)NC(=O)[C@H](CC(C)C)NC(=O)[C@H](CCCNC(=N)N)NC(=O)[C@H](CO)NC(=O)[C@H](CC(C)C)NC(=O)[C@H](CCC(=O)O)NC(=O)[C@H](C)NC(=O)[C@@H](NC(=O)[C@H](Cc1ccccc1)NC(=O)[C@H](N)CCCNC(=N)N)[C@@H](C)O)C(=O)N[C@H](C(=O)O)C(C)C [Peptide 128] (H-[dR]FTAELSRLREGARLQRLLQGLV-OH) | 897 ± 108 nM | 
2 | CC(C)C[C@H](NC(=O)CNC(=O)[C@H](CCC(N)=O)NC(=O)[C@H](CC(C)C)NC(=O)[C@H](CC(C)C)NC(=O)[C@H](CCCNC(=N)N)NC(=O)[C@H](CCC(N)=O)NC(=O)[C@H](CC(C)C)NC(=O)[C@H](CCCNC(=N)N)NC(=O)[C@H](C)NC(=O)CNC(=O)[C@H](CCC(=O)O)NC(=O)[C@H](CCCNC(=N)N)NC(=O)[C@H](CC(C)C)NC(=O)[C@H](CCCNC(=N)N)NC(=O)[C@H](CO)NC(=O)[C@H](CC(C)C)NC(=O)[C@H](CCC(=O)O)NC(=O)[C@H](CO)NC(=O)[C@@H](NC(=O)[C@H](Cc1ccccc1)NC(=O)[C@H](N)CCCNC(=N)N)[C@@H](C)O)C(=O)N[C@H](C(=O)O)C(C)C [Peptide 125] | 1360 ± 322 nM | 
3 | CC(C)C[C@H](NC(=O)CNC(=O)[C@H](CCC(N)=O)NC(=O)[C@H](CC(C)C)NC(=O)[C@H](CC(C)C)NC(=O)[C@H](CCCNC(=N)N)NC(=O)[C@H](CCC(N)=O)NC(=O)[C@H](CC(C)C)NC(=O)[C@H](CCCNC(=N)N)NC(=O)[C@H](C)NC(=O)CNC(=O)[C@H](CCC(=O)O)NC(=O)[C@H](CCCNC(=N)N)NC(=O)[C@H](CC(C)C)NC(=O)[C@H](CCCNC(=N)N)NC(=O)[C@H](CO)NC(=O)[C@H](CC(C)C)NC(=O)[C@H](CCC(=O)O)NC(=O)[C@H](CO)NC(=O)[C@@H](NC(=O)[C@H](Cc1ccccc1)NC(=O)[C@@H](N)CCCNC(=N)N)[C@@H](C)O)C(=O)N[C@H](C(=O)O)C(C)C [Peptide 124] | 924 ± 237 nM | 
4 | CC(C)C[C@H](NC(=O)CNC(=O)[C@H](CCC(N)=O)NC(=O)[C@H](CC(C)C)NC(=O)[C@H](CC(C)C)NC(=O)[C@H](CCCNC(=N)N)NC(=O)[C@H](CCC(N)=O)NC(=O)[C@H](CC(C)C)NC(=O)[C@H](CCCNC(=N)N)NC(=O)[C@H](C)NC(=O)CNC(=O)[C@H](CCC(=O)O)NC(=O)[C@H](CCCNC(=N)N)NC(=O)[C@H](CC(C)C)NC(=O)[C@H](CCCNC(=N)N)NC(=O)[C@H](CO)NC(=O)[C@H](CC(C)C)NC(=O)[C@H](CCC(=O)O)NC(=O)[C@H](CO)NC(=O)[C@@H](NC(=O)[C@@H](N)Cc1ccccc1)[C@@H](C)O)C(=O)N[C@H](C(=O)O)C(C)C [Peptide 119] |  | IC50 (human SCTR [1]; read-out: IC50, inhibition of β-arr2-GFP translocation (Table 2)): 2340 ± 366 nM
5 | CC(C)C[C@H](NC(=O)CNC(=O)[C@H](CCC(N)=O)NC(=O)[C@H](CC(C)C)NC(=O)[C@H](CC(C)C)NC(=O)[C@H](CCCNC(=N)N)NC(=O)[C@H](CCC(N)=O)NC(=O)[C@H](CC(C)C)NC(=O)[C@H](CCCNC(=N)N)NC(=O)[C@H](C)NC(=O)CNC(=O)[C@H](CCC(=O)O)NC(=O)[C@H](CCCNC(=N)N)NC(=O)[C@H](CC(C)C)NC(=O)[C@H](CCCNC(=N)N)NC(=O)[C@H](CO)NC(=O)[C@H](CC(C)C)NC(=O)[C@H](CCC(=O)O)NC(=O)[C@H](CO)NC(=O)[C@@H](NC(=O)[C@H](C)NC(=O)[C@H](N)CCCNC(=N)N)[C@@H](C)O)C(=O)N[C@H](C(=O)O)C(C)C [Peptide 126] | 1760 ± 322 nM | 
6 | CC(C)C[C@H](NC(=O)CNC(=O)[C@H](CCC(N)=O)NC(=O)[C@H](CC(C)C)NC(=O)[C@H](CC(C)C)NC(=O)[C@H](CCCNC(=N)N)NC(=O)[C@H](CCC(N)=O)NC(=O)[C@H](CC(C)C)NC(=O)[C@H](CCCNC(=N)N)NC(=O)[C@H](C)NC(=O)CNC(=O)[C@H](CCC(=O)O)NC(=O)[C@H](CCCNC(=N)N)NC(=O)[C@H](CC(C)C)NC(=O)[C@H](CCCNC(=N)N)NC(=O)[C@H](CO)NC(=O)[C@H](CC(C)C)NC(=O)[C@H](CCC(=O)O)NC(=O)[C@H](CO)NC(=O)[C@@H](NC(=O)[C@H](Cc1ccccc1)NC(=O)[C@H](NC(=O)CNC(=O)[C@H](CC(=O)O)NC(=O)[C@H](CO)NC(=O)[C@@H](N)Cc1c[nH]cn1)[C@H](C)O)[C@@H](C)O)C(=O)N[C@H](C(=O)O)C(C)C [Peptide 89] |  | β-arrestin2-GFP agonism efficacy (human SCTR [2]): 102,97 % Sec
7 | CC(C)C[C@H](NC(=O)[C@H](CCCNC(=N)N)NC(=O)[C@H](C)NC(=O)CNC(=O)[C@H](CCC(=O)O)NC(=O)[C@H](CCCNC(=N)N)NC(=O)[C@H](CC(C)C)NC(=O)[C@H](CCCNC(=N)N)NC(=O)[C@H](CO)NC(=O)[C@H](CC(C)C)NC(=O)[C@H](CCC(=O)O)NC(=O)[C@H](CO)NC(=O)[C@@H](NC(=O)[C@H](Cc1ccccc1)NC(=O)[C@@H](NC(=O)CNC(=O)[C@H](CC(=O)O)NC(=O)[C@H](CO)NC(=O)[C@@H](N)Cc1c[nH]cn1)[C@@H](C)O)[C@@H](C)O)C(=O)N[C@@H](CCC(N)=O)C(=O)N[C@@H](CCCNC(=N)N)C(=O)N[C@@H](CC(C)C)C(=O)N[C@@H](CC(C)C)C(=O)N[C@@H](CCC(N)=O)C(=O)NCC(=O)N[C@@H](CC(C)C)C(=O)N1CCC[C@H]1C(=O)O [Peptide 85] |  | β-arrestin2-GFP agonism efficacy (human SCTR [2]): 100,47 % Sec; EC50 (human SCTR [2]; U2OS-SCTR/β-arr2-GFP cells, 20 min at 37 °C, mean of at least three independent experiments in duplicates, read-out: β-arrestin2-GFP agonism potency): 5.19 nM

Second part, led by results:

Row | IC50 (human SCTR [1]; [3]) | SMILES | also measured
8 | 998 ± 142 nM | CC(C)C[C@H](NC(=O)CNC(=O)[C@H](CCC(N)=O)NC(=O)[C@H](CC(C)C)NC(=O)[C@H](CC(C)C)NC(=O)[C@H](CCCNC(=N)N)NC(=O)[C@H](CCC(N)=O)NC(=O)[C@H](CC(C)C)NC(=O)[C@H](CCCNC(=N)N)NC(=O)[C@H](C)NC(=O)CNC(=O)[C@H](CCC(=O)O)NC(=O)[C@H](CCCNC(=N)N)NC(=O)[C@H](CC(C)C)NC(=O)[C@H](CCCNC(=N)N)NC(=O)[C@H](C)NC(=O)[C@H](CC(C)C)NC(=O)[C@H](CCC(=O)O)NC(=O)[C@H](CO)NC(=O)[C@@H](NC(=O)[C@H](Cc1ccccc1)NC(=O)[C@H](N)CCCNC(=N)N)[C@@H](C)O)C(=O)N[C@H](C(=O)O)C(C)C [Peptide 131] (H-[dR]FTSELARLREGARLQRLLQGLV-OH) | 
9 | 884 ± 169 nM | CC(C)C[C@H](NC(=O)CNC(=O)[C@H](CCC(N)=O)NC(=O)[C@H](CC(C)C)NC(=O)[C@H](CC(C)C)NC(=O)[C@H](CCCNC(=N)N)NC(=O)[C@H](CCC(N)=O)NC(=O)[C@H](CC(C)C)NC(=O)[C@H](CCCNC(=N)N)NC(=O)[C@H](C)NC(=O)CNC(=O)[C@H](CCC(=O)O)NC(=O)[C@H](CCCNC(=N)N)NC(=O)[C@H](C)NC(=O)[C@H](CCCNC(=N)N)NC(=O)[C@H](CO)NC(=O)[C@H](CC(C)C)NC(=O)[C@H](CCC(=O)O)NC(=O)[C@H](CO)NC(=O)[C@@H](NC(=O)[C@H](Cc1ccccc1)NC(=O)[C@H](N)CCCNC(=N)N)[C@@H](C)O)C(=O)N[C@H](C(=O)O)C(C)C [Peptide 133] (H-[dR]FTSELSRAREGARLQRLLQGLV-OH) | 
10 | 2480 ± 579 nM | CC(C)C[C@H](NC(=O)CNC(=O)[C@H](CCC(N)=O)NC(=O)[C@H](CC(C)C)NC(=O)[C@H](CC(C)C)NC(=O)[C@H](CCCNC(=N)N)NC(=O)[C@H](CCC(N)=O)NC(=O)[C@H](CC(C)C)NC(=O)[C@H](CCCNC(=N)N)NC(=O)[C@H](C)NC(=O)CNC(=O)[C@H](CCC(=O)O)NC(=O)[C@H](CCCNC(=N)N)NC(=O)[C@H](CC(C)C)NC(=O)[C@H](C)NC(=O)[C@H](CO)NC(=O)[C@H](CC(C)C)NC(=O)[C@H](CCC(=O)O)NC(=O)[C@H](CO)NC(=O)[C@@H](NC(=O)[C@H](Cc1ccccc1)NC(=O)[C@H](N)CCCNC(=N)N)[C@@H](C)O)C(=O)N[C@H](C(=O)O)C(C)C [Peptide 132] (H-[dR]FTSELSALREGARLQRLLQGLV-OH) | 
